Laboratory results as given in publication PMC9329436, “Optimization of the 4-anilinoquin(az)oline scaffold as epidermal growth factor receptor (EGFR) inhibitors for chordoma utilizing a toxicology profiling assay platform” (Scientific Reports, 2022).

Assays:
Experiment in all cases: 33PanQinase activity assay
Format in all cases: biochemical
[1] = target: MKNK2 (Homo sapiens, UniProt Q9HBH9); settings: for Residual activity: singlicate
Description: (§1) Table S4. Profiling of two compounds at two concentrations against 320 wild-type protein kinases; singlicate measurement; Residual activities (% of control).

[2] = target: ERBB2 (Homo sapiens, UniProt P04626); settings: for Residual activity: singlicate
Description: as §1

[3] = target: T1, EPHA6 (Homo sapiens, UniProt Q9UF33); settings: for Residual activity: singlicate
T1 sequence (Q9UF33 23-1036): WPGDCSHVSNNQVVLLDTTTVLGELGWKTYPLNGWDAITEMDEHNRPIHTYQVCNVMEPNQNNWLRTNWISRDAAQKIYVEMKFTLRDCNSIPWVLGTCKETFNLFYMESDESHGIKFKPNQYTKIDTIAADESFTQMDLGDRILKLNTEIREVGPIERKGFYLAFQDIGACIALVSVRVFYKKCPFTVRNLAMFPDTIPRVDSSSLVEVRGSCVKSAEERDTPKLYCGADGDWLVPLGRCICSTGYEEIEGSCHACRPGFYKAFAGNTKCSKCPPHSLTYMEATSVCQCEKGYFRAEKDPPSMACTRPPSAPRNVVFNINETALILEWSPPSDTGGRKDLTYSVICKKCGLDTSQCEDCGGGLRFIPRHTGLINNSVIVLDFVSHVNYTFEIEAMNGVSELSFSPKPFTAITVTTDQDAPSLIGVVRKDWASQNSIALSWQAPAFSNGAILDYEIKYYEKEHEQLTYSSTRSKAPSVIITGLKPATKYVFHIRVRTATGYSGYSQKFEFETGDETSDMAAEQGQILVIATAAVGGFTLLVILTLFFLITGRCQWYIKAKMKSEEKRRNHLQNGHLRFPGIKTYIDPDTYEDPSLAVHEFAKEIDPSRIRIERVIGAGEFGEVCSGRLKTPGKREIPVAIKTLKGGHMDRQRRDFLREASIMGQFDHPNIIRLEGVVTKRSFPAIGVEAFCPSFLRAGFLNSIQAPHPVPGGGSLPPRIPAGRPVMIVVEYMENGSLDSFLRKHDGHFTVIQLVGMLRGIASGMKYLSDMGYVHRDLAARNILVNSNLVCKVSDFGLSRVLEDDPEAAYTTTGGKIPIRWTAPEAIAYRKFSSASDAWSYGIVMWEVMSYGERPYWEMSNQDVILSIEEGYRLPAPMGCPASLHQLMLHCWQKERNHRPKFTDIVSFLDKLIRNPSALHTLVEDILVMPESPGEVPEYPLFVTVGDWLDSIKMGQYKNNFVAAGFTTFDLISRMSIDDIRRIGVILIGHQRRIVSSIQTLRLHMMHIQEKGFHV
Description: as §1

[4] = target: T2, PRKG2 (Homo sapiens, UniProt Q13237); settings: for Residual activity, PRKG2: kinase PRKG2, singlicate
T2 sequence (Q13237 1-762): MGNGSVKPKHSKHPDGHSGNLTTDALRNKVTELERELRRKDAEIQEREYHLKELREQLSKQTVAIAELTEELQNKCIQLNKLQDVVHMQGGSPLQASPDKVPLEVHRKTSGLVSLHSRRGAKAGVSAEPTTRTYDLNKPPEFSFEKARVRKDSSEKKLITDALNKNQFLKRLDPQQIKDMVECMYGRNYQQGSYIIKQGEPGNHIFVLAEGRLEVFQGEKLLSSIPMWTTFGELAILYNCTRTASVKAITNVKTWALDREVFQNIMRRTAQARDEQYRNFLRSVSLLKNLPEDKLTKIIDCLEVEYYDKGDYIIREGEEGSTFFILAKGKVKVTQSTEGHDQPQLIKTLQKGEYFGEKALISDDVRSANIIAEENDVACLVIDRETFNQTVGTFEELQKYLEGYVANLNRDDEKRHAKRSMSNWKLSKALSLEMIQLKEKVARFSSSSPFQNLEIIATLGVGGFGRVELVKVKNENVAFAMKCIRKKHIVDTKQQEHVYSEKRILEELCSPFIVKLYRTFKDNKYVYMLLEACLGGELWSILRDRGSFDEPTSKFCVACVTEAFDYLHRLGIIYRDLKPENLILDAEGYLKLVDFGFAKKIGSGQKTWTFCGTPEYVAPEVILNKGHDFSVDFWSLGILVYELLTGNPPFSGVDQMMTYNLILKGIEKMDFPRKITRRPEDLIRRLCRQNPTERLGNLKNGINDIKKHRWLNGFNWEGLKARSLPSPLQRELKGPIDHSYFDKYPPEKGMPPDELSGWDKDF
Description: as §1

[5] = target: T3, DDR2 (Homo sapiens, UniProt Q16832); settings: for Residual activity: singlicate
T3 sequence (Q16832 22-855): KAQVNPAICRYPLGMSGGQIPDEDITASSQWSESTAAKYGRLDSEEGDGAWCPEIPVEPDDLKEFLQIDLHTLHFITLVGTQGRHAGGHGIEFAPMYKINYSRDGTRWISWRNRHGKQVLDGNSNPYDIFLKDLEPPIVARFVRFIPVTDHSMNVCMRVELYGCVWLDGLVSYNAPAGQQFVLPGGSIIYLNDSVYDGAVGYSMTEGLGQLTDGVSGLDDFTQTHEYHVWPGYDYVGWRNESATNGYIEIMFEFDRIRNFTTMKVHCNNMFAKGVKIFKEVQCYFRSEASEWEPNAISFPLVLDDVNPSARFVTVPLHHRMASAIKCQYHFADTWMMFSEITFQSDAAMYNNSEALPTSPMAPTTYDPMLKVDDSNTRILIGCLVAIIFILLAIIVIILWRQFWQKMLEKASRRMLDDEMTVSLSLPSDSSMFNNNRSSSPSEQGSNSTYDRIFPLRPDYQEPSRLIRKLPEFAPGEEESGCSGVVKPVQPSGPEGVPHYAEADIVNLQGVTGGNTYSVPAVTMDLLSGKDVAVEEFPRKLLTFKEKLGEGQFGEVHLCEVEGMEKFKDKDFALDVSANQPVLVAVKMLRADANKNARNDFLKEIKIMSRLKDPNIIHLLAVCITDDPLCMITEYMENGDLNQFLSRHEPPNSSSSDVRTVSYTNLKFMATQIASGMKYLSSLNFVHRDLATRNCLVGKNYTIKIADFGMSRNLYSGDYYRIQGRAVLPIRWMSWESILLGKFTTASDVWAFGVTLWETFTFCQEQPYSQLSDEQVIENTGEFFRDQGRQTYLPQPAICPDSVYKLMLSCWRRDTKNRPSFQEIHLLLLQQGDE
Description: as §1

[6] = target: ERBB4 (Homo sapiens, UniProt Q15303); settings: for Residual activity: singlicate
Description: as §1

Sequence of MKNK2 (Q9HBH9 whole entry): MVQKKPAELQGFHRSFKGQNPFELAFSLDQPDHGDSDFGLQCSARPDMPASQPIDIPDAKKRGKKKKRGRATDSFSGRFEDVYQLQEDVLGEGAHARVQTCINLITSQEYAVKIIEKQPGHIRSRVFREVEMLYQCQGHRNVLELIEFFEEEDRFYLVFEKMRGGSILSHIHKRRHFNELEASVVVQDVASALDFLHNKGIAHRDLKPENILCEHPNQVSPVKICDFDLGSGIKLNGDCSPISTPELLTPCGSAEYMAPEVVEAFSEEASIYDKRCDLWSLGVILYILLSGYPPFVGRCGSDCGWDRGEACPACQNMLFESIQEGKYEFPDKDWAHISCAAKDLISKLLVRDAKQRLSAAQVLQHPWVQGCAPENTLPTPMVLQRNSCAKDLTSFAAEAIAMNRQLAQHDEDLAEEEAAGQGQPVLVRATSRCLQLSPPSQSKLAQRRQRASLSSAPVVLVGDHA
Sequence of ERBB2 (P04626 23-1255): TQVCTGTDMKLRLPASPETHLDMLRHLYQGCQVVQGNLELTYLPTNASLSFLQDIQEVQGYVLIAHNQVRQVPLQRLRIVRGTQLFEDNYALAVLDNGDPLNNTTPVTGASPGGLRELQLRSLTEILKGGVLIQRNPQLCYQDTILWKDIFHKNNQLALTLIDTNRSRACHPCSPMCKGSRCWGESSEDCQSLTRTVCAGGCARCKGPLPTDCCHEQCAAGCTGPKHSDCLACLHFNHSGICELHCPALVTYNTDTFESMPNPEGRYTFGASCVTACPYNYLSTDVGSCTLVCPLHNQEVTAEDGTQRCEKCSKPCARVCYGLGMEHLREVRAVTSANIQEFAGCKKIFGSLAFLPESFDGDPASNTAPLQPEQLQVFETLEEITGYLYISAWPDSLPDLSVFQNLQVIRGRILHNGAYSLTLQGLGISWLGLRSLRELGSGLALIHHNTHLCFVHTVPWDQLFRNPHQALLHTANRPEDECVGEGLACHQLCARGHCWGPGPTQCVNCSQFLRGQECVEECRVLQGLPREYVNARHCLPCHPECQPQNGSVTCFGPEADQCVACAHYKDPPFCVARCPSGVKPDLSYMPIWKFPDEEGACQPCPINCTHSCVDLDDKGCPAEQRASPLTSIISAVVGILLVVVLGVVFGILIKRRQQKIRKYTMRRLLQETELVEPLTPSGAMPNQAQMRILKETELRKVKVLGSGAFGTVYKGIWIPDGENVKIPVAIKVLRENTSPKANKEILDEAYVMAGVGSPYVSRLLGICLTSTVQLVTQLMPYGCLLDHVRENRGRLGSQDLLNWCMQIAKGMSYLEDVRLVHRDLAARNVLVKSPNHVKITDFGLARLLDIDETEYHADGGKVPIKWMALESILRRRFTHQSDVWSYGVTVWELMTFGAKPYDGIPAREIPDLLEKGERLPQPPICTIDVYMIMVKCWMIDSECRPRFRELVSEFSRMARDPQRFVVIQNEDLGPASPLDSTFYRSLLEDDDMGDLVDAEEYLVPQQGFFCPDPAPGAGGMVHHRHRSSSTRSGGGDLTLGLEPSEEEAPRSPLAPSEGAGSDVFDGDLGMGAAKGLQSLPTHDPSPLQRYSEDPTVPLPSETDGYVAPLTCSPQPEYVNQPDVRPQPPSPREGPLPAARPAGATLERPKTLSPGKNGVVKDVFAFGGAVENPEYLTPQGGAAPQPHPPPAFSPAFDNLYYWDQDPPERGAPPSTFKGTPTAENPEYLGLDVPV
Sequence of ERBB4 (Q15303 26-1308): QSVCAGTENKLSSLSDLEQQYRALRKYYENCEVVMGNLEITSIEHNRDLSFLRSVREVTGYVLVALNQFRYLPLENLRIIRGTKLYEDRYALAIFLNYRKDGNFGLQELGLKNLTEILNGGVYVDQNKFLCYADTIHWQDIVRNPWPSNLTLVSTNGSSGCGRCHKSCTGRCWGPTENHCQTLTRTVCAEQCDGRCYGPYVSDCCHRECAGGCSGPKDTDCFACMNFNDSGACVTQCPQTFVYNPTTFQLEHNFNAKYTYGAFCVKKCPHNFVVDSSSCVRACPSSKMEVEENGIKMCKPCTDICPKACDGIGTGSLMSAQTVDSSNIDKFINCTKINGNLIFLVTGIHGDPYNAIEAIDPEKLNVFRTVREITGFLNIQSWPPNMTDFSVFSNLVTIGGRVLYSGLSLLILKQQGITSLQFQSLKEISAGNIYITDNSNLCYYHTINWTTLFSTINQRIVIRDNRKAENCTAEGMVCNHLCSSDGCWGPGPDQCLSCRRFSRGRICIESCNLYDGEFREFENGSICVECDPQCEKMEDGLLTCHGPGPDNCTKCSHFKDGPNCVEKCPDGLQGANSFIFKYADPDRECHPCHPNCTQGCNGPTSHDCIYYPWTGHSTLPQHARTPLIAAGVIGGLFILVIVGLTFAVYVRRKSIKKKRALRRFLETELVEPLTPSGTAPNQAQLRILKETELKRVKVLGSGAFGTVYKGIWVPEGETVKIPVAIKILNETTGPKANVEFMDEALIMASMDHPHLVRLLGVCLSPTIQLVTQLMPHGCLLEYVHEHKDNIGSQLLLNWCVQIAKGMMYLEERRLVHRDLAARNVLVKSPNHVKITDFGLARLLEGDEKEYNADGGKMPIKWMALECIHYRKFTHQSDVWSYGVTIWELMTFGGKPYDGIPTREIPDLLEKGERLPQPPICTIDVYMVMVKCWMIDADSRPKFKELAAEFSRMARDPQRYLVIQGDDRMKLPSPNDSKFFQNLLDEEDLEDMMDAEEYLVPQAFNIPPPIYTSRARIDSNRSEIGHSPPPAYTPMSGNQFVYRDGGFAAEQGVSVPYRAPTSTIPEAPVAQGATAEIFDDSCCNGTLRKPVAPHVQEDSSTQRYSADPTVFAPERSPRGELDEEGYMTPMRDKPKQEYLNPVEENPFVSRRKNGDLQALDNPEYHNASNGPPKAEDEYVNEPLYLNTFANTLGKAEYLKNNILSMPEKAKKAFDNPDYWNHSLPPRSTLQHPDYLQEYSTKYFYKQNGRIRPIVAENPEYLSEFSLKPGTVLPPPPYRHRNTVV

| Compound | Residual activity ([1]; MKNK2, 1.0E-06 M) | Residual activity ([1]; MKNK2, 1.0E-07 M) | Residual activity ([2]; ERBB2, 1.0E-06 M) | Residual activity ([2]; ERBB2, 1.0E-07 M) | Residual activity ([3]; EPHA6, 1.0E-06 M) | Residual activity ([3]; EPHA6, 1.0E-07 M) | PRKG2 inhibition ([4]; 10 μM) [%] | Residual activity, PRKG2 ([4]; assay conc. 1.0E-06 M) | Residual activity, PRKG2 ([4]; assay conc. 1.0E-07 M) | Residual activity ([5]; DDR2, 1.0E-06 M) | Residual activity ([5]; DDR2, 1.0E-07 M) | ERBB4 inhibition ([6]; 10 μM) [%] | Residual activity ([6]; ERBB4, 1.0E-06 M) | Residual activity ([6]; ERBB4, 1.0E-07 M) | MKNK2 inhibition ([1]; 10 μM) [%] | ERBB2 inhibition ([2]; 1 μM) | EPHA6 inhibition ([3]; 10 μM) [%] | DDR2 inhibition ([5]; 10 μM) [%] | ERBB4 inhibition ([6]; 1 μM) |
| --- | --- | --- | --- | --- | --- | --- | --- | --- | --- | --- | --- | --- | --- | --- | --- | --- | --- | --- | --- |
| C#Cc1cc(Nc2ncnc3cc(I)ccc23)ccc1Cl [Compound 41] | 74 % of control | 92 % of control | 78 % of control | 96 % of control | 75 % of control | 94 % of control | > 50 | 20 % of control | 100 % of control | 81 % of control | 91 % of control | > 50 | 44 % of control | 92 % of control |  |  |  |  |  |
| C#Cc1cc(Nc2ncnc3cc(OC)c(OC)cc23)ccc1Cl [Compound 45] | 46 % of control | 78 % of control | 11 % of control | 44 % of control | 35 % of control | 89 % of control |  | 80 % of control | 118 % of control | 35 % of control | 87 % of control |  | 7 % of control | 34 % of control | > 50 | moderate inhibition | > 50 | > 50 | moderate inhibition |
